For data set [1], the system named is HL-60. The experiment in a line: Induction of apoptosis in human HL-60 cells assessed as late apoptotic cells at 0.2 uM incubated for 48 hrs by annexin V-FITC/PI satining based flow cytometry (reference value: 1.33 %). It counts as functional. On the technique in general: A flow cytometer gives signals particle by particle.
The subject of data set [2] is HL-60. The data set can be described thus: Induction of apoptosis in human HL-60 cells assessed as necrotic cells at 1 uM incubated for 48 hrs by annexin V-FITC/PI satining based flow cytometry (reference value: 0.00 %). Type of data set: functional.
The target in data set [3] is Cyclin-dependent kinase 13/Cyclin-K (Homo sapiens) (UniProt Q14004+O75909). The experiment in a line: Inhibition of CDK13/cyclinK (unknown origin) at 100 nM preincubated for 20 mins followed by [gamma-33P]ATP addition measured after 120 mins in presence of ATP by Hot-SpotSM kinase assay relative to control. The following applies: time 140.0 min. It counts as protein-complex assay.

Data set [4] concerns the target Cyclin-dependent kinase 1/cyclin B1 (Homo sapiens) (UniProt P06493+P14635). The data set can be described thus: Inhibition of CDK1/cyclinB1 (unknown origin) at 100 nM preincubated for 20 mins followed by [gamma-33P]ATP addition measured after 120 mins in presence of ATP by Hot-SpotSM kinase assay relative to control. It counts as protein-complex assay. The following applies: time 140.0 min.

Data set [5] relates to HL-60. The experiment in a line: Induction of differentiation in human HL-60 cells assessed as increase in CD11b positive cells at 2 uM incubated for 24 hrs by FITC staining based flow cytometry (reference value: 1.45 %). It counts as functional.
Data set [6] is described as follows: Antiproliferative activity against HEK293T cells incubated for 72 hrs by CCK8 assay. Type of data set: toxicity, cell-based, HEK-293T. The following applies: human.
Data set [7] has as its system U-937. The data set can be described thus: Induction of apoptosis in human U-937 cells assessed as late apoptotic cells at 2 uM incubated for 48 hrs by annexin V-FITC/PI satining based flow cytometry (reference value: 7.10 %). Type of data set: functional.
The target in another data set is Histone deacetylase 2 (Homo sapiens, UniProt Q92769). The data set can be described thus: Inhibition of recombinant human HDAC2 using HDAC substrate incubated for 30 mins by fluorescence based assay.
The test system of data set [8] is U-937. The data set can be described thus: Induction of differentiation in human U-937 cells assessed as increase in CD11b positive cells at 0.5 uM incubated for 48 hrs by FITC staining based flow cytometry (reference value: 2.72 %). It counts as functional.
Data set [9] relates to HL-60. The data set can be described thus: Induction of apoptosis in human HL-60 cells assessed as viable cells at 1 uM incubated for 48 hrs by annexin V-FITC/PI satining based flow cytometry (reference value: 97.4 %). It counts as functional. The following applies: read-out: Activity.
Data set [10] concerns HL-60. The experiment in a line: Induction of apoptosis in human HL-60 cells assessed as necrotic cells at 0.2 uM incubated for 48 hrs by annexin V-FITC/PI satining based flow cytometry (reference value: 0.00 %). It counts as functional.
The target in data set [11] is CDK2/Cyclin A2 (Homo sapiens) (UniProt P24941+P20248). The following applies: dose 100.0 nM, time 140.0 min.
The target in data set [12] is CDK1/Cyclin E (Homo sapiens) (UniProt P06493+P24864). The data set can be described thus: Inhibition of CDK1/cyclinE1 (unknown origin) at 100 nM preincubated for 20 mins followed by [gamma-33P]ATP addition measured after 120 mins in presence of ATP by Hot-SpotSM kinase assay relative to control. It counts as protein-complex assay. The following applies: time 140.0 min.

Data set [13] in a line: Cmax in Sprague-Dawley rat at 25 mg/kg, po measured upto 8 hrs by LC/MS-MS analysis. It counts as ADME, organism-based. Also noted: time < 8 hrs, dose 25 mg/kg, route po. The following applies: in vivo.
The nature of data set [14]: Cmax in Sprague-Dawley rat at 5 mg/kg, iv measured upto 6 hrs by LC/MS-MS analysis. Type of data set: ADME, organism-based. Details: time < 6 hrs, dose 5 mg/kg, route iv. To be noted: in vivo.
Data set [15] deals with Cyclin-dependent kinase 9 (Homo sapiens, UniProt P50750). The experiment in a line: Inhibition of CDK9 (unknown origin) preincubated for 20 mins followed by [gamma-33P]ATP addition measured after 120 mins in presence of ATP by Hot-SpotSM kinase assay.
The target of the next data set is Histone deacetylase 5 (Homo sapiens, UniProt Q9UQL6). The data set can be described thus: Inhibition of recombinant human HDAC5 using HDAC substrate incubated for 30 mins by fluorescence based assay.
For data set [16], the system named is HL-60. The data set can be described thus: Induction of apoptosis in human HL-60 cells assessed as viable cells at 2 uM incubated for 48 hrs by annexin V-FITC/PI satining based flow cytometry (reference value: 97.4 %). Type of data set: functional. The following applies: read-out: Activity.
The test system of data set [17] is HL-60. The experiment in a line: Induction of apoptosis in human HL-60 cells assessed as viable cells at 0.5 uM incubated for 48 hrs by annexin V-FITC/PI satining based flow cytometry (reference value: 97.4 %). To be noted: read-out: Activity. Type of data set: functional.
The target in data set [18] is Histone deacetylase (Homo sapiens) (UniProt Q13547+O15379+Q9UBN7+Q92769+Q9UQL6+Q8WUI4+Q9BY41+Q96DB2+P56524+Q9UKV0+Q969S8). The experiment in a line: Inhibition of HDAC in human nuclear extract using Ac-Arg-Gly-Lys(Ac)-AMC as substrate at 1 uM incubated overnight by fluorescence based assay relative to control. Type of data set: subcellular. To be noted: HeLa, Nucleus.

Data set [19] concerns the target Protein deacetylase HDAC6 (Homo sapiens, UniProt Q9UBN7). The data set can be described thus: Inhibition of recombinant human HDAC6 using HDAC substrate incubated for 30 mins by fluorescence based assay.
In data set [20] the test system is HL-60. The data set can be described thus: Induction of apoptosis in human HL-60 cells assessed as early apoptotic cells at 2.5 uM incubated for 48 hrs by annexin V-FITC/PI satining based flow cytometry (reference value: 2.4 %). Type of data set: functional.
Data set [21] deals with U-937. The experiment in a line: Induction of apoptosis in human U-937 cells assessed as late apoptotic cells at 2.5 uM incubated for 48 hrs by annexin V-FITC/PI satining based flow cytometry (reference value: 4.23 %). Type of data set: functional.
In data set [22] the test system is HL-60. The data set can be described thus: Induction of apoptosis in human HL-60 cells assessed as late apoptotic cells at 2.5 uM incubated for 48 hrs by annexin V-FITC/PI satining based flow cytometry (reference value: 2.83 %). Type of data set: functional.
Data set [23] concerns HL-60. The data set can be described thus: Induction of apoptosis in human HL-60 cells assessed as late apoptotic cells at 5 uM incubated for 48 hrs by annexin V-FITC/PI satining based flow cytometry (reference value: 2.83 %). It counts as functional.
Data set [24] concerns HL-60. The data set can be described thus: Induction of apoptosis in human HL-60 cells assessed as viable cells at 1.2 uM incubated for 48 hrs by annexin V-FITC/PI satining based flow cytometry (reference value: 94.7 %). Type of data set: functional. To be noted: read-out: Activity.
The test system of data set [25] is HL-60. The experiment in a line: Induction of apoptosis in human HL-60 cells assessed as necrotic cells at 5 uM incubated for 48 hrs by annexin V-FITC/PI satining based flow cytometry (reference value: 0.04 %). It counts as functional.
Data set [26] relates to HL-60. The data set can be described thus: Induction of apoptosis in human HL-60 cells assessed as late apoptotic cells at 0.6 uM incubated for 48 hrs by annexin V-FITC/PI satining based flow cytometry (reference value: 2.83 %). Type of data set: functional.
The subject of data set [27] is HL-60. The experiment in a line: Induction of apoptosis in human HL-60 cells assessed as necrotic cells at 0.6 uM incubated for 48 hrs by annexin V-FITC/PI satining based flow cytometry (reference value: 0.04 %). It counts as functional.
The test system of data set [28] is HL-60. The data set can be described thus: Induction of apoptosis in human HL-60 cells assessed as viable cells at 5 uM incubated for 48 hrs by annexin V-FITC/PI satining based flow cytometry (reference value: 94.7 %). The following applies: read-out: Activity. Type of data set: functional.
For data set [29], the system named is U-937. The experiment in a line: Induction of apoptosis in human U-937 cells assessed as viable cells at 2.5 uM incubated for 48 hrs by annexin V-FITC/PI satining based flow cytometry (reference value: 93.7 %). Type of data set: functional. To be noted: read-out: Activity.
The test system of data set [30] is HL-60. The data set can be described thus: Induction of apoptosis in human HL-60 cells assessed as necrotic cells at 1.2 uM incubated for 48 hrs by annexin V-FITC/PI satining based flow cytometry (reference value: 0.04 %). Type of data set: functional.

The structures appear in SMILES notation.

Sequence of Histone deacetylase 5 (Q9UQL6 whole entry): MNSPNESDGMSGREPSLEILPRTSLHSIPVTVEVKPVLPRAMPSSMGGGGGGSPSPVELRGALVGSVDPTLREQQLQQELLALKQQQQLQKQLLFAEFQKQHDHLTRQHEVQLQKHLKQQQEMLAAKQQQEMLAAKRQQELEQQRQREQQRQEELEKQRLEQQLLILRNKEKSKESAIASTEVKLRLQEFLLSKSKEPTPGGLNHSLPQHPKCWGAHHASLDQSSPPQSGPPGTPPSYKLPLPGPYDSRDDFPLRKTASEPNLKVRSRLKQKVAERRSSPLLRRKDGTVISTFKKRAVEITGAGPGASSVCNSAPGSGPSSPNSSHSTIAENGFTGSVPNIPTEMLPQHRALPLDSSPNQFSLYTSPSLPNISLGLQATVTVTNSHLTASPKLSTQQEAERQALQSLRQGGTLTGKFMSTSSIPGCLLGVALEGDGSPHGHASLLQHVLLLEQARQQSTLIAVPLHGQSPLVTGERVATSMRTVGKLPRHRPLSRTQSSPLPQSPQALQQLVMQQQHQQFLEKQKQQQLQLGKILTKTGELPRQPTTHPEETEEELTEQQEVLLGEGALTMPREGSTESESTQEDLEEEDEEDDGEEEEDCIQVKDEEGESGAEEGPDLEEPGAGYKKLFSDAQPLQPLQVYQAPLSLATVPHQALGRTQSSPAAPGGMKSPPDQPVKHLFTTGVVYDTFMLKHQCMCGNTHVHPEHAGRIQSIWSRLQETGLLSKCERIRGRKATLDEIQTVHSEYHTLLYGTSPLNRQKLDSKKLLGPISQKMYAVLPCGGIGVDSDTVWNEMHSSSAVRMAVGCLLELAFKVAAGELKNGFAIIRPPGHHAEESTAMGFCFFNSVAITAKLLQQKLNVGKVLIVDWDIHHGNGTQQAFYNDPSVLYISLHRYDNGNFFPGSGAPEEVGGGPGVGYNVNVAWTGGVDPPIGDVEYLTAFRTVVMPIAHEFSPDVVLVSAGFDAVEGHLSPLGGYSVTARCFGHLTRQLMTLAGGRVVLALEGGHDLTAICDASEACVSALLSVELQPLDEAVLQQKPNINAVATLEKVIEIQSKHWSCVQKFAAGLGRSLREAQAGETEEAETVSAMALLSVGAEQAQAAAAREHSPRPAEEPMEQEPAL
Sequence of Cyclin-dependent kinase 13/Cyclin-K (Homo sapiens) (O75909 whole entry, looked up): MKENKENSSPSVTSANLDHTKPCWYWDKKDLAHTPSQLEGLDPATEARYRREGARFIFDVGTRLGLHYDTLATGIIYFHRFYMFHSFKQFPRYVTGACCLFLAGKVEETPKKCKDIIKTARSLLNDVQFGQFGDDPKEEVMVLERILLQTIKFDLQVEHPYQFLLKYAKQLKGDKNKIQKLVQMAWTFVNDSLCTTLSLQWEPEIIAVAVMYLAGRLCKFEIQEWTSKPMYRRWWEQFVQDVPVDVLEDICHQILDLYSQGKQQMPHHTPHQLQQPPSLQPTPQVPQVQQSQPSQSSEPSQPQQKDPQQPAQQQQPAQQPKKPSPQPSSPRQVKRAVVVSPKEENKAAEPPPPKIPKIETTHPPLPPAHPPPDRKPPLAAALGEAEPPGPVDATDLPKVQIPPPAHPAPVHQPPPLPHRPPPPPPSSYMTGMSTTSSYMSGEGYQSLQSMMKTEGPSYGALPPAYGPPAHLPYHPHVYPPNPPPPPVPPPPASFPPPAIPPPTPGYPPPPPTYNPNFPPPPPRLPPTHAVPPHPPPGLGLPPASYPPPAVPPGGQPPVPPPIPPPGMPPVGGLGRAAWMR
Sequence of Cyclin-dependent kinase 13/Cyclin-K (Homo sapiens) (Q14004 whole entry, looked up): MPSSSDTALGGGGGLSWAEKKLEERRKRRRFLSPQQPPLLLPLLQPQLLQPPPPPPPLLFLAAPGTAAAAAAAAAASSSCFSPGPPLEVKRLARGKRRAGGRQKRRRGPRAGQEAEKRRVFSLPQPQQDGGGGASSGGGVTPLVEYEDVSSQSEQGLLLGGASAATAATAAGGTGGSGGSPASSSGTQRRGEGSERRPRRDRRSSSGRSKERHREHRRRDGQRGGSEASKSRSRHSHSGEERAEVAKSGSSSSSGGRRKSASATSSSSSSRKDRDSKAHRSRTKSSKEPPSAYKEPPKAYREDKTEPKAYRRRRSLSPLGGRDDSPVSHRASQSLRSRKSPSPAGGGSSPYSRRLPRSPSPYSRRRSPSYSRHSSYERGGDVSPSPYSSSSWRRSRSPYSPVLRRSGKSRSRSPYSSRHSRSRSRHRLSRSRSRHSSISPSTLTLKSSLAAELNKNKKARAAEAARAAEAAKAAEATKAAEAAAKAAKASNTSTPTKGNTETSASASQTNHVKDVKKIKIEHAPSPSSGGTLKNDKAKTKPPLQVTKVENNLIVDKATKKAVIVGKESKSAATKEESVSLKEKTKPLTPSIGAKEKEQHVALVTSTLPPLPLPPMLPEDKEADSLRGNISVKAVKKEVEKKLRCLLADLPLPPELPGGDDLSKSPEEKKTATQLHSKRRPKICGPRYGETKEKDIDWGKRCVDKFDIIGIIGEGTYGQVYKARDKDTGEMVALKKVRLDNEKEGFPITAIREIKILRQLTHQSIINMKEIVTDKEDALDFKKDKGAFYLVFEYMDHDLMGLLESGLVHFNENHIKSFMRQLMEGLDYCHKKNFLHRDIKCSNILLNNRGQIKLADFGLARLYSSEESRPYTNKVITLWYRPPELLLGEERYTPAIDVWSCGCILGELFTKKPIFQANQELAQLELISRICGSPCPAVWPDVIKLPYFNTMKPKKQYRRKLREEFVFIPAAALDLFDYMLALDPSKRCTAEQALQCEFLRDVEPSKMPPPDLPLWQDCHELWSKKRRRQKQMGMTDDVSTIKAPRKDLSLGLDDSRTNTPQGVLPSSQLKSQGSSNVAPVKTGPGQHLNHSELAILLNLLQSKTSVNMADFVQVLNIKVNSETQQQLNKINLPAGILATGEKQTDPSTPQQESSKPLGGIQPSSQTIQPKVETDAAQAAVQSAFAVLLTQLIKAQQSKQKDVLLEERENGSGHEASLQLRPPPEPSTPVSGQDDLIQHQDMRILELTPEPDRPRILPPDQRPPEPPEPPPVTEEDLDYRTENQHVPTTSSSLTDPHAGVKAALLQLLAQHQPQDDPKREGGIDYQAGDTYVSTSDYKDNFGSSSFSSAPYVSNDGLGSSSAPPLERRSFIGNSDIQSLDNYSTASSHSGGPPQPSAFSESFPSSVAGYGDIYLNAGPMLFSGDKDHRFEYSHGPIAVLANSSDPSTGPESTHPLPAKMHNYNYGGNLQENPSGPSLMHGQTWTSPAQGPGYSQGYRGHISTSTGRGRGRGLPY
Sequence of Cyclin-dependent kinase 9 (P50750 whole entry): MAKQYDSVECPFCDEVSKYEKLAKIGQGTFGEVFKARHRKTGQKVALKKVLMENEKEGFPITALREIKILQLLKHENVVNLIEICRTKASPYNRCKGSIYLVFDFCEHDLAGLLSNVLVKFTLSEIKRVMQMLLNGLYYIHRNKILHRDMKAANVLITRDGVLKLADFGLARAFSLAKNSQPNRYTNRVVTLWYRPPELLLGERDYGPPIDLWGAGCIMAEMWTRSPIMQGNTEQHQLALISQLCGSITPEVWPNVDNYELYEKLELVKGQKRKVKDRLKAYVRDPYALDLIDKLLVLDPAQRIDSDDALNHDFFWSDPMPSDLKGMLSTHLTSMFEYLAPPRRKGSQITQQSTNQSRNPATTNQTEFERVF
Sequence of Protein deacetylase HDAC6 (Q9UBN7 whole entry): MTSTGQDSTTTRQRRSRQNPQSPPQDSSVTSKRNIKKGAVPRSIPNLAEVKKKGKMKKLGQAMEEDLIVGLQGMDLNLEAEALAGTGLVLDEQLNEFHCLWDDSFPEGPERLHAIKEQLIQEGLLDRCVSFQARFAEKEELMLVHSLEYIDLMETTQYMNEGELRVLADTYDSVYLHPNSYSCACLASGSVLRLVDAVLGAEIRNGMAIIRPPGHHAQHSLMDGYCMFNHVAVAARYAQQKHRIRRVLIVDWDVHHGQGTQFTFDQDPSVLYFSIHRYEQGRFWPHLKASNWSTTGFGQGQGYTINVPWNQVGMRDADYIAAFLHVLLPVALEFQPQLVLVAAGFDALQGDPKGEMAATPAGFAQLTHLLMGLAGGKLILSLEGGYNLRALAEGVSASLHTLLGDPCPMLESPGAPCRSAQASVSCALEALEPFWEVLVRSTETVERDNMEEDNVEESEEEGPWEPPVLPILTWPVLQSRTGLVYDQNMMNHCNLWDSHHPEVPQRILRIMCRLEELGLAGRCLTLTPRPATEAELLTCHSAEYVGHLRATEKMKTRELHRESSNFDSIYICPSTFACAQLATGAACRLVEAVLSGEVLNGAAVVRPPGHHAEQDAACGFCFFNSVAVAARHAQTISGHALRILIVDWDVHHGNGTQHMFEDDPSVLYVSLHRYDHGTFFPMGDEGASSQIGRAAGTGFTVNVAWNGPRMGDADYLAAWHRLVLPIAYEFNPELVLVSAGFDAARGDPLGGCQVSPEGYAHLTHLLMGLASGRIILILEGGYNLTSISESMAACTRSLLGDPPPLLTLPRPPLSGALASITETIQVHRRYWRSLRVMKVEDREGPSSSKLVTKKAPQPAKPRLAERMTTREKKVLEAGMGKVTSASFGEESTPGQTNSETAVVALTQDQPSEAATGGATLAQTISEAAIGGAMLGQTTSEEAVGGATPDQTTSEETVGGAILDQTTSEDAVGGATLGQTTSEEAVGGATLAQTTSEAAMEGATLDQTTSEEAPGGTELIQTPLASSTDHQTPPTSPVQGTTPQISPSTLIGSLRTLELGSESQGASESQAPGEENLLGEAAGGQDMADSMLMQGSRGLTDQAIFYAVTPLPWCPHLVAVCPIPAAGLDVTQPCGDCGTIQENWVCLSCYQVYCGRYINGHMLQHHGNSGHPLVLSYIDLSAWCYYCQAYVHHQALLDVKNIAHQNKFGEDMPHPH

For orientation: inhibition means the change of the read-out against control, counted positive when it falls. A word on the IC50: it is the concentration needed to halve the response being measured. One may read the Cmax as the maximum level reached in the sampled fluid or tissue. As to `Nc1ccccc1NC(=O)c1ccc(NC(=O)c2n[nH]cc2NC(=O)c2c(Cl)cccc2Cl)cc1`, the Activity with HL-60 [1] worked out at 1.97%; with HL-60 [2] it was 0.445%; in the data set with HL-60 [5] it was 62.2%; in the data set on U-937 [7], 88.7%; in the data set on U-937 [8], 3.96%; in the data set on HL-60 [10] it was 0.02%. Further, the inhibition in data set [3] came to 100%; in data set [4], 43.8%; in data set [11], 69.1%; in [12] it was 27.6%; in [18], 100%. In data set [6], the IC50 at 72 h was above 20000 nM. Further, the IC50 is 98.8 nM on Histone deacetylase 2, below 100 nM in data set [15], above 1000 nM at Histone deacetylase 5 and 723 nM in [19]. Also, the viability at 1 µM with HL-60 [9] is 43.5%. Besides, the values for the Cmax in data set [13] and in data set [14] were 1430 ng/mL and 3640 ng/mL, respectively. The viability at 2 µM in the data set with HL-60 [16] worked out at 5.25%. Also, the viability at 0.5 µM in the data set on HL-60 [17] was determined as 94.4%.
In the case of `Nc1cc(F)ccc1NC(=O)c1ccc(CNC(=O)/C=C/c2cccnc2)cc1` [TUCIDINOSTAT], the Activity in the data set on HL-60 [20] worked out at 5.95%; with U-937 [21], 9.77%; with HL-60 [22], 37.9%; in the data set with HL-60 [23] it was 73.4%; in the data set on HL-60 [25] it was 0.353%; in the data set with HL-60 [26], 2.27%. For the same compound, the Activity in the data set with HL-60 [27] is 0.07%; in the data set with HL-60 [30], 0.04%. Further, in the data set on HL-60 [24], the viability at 1.2 µM amounted to 84.7%. Moreover, the viability at 5 µM with HL-60 [28] was determined as 18.1%. Further, the viability at 2.5 µM with U-937 [29] stood at 87.5%.
